Experiments:
[1] = biological target: T1, IRAK4 kinase (Homo sapiens, UniProt Q9NWZ3); test: IRAK4 kinase activity test (KinEASE-STK HTRF kit); format: biochemical; settings: IRAK4 kinase inhibition, 7 μM ATP, 37° C. 120 min
T1 sequence (Q9NWZ3 1-460): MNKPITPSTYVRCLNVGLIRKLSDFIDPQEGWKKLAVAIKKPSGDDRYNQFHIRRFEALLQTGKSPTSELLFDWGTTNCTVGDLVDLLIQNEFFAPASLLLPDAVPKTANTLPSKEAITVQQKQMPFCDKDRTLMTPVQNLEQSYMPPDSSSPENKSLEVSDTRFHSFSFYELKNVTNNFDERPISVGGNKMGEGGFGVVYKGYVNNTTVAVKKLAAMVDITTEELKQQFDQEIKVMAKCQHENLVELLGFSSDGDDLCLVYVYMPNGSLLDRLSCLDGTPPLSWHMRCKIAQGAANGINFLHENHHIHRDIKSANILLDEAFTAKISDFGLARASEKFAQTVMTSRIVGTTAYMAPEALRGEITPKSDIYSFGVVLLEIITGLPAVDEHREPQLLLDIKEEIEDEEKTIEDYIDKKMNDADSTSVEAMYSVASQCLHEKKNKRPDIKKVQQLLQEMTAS
Protocol: KinEASE-STK Si serine/threonine kinase kit (Cisbio) was used to detect the inhibitory effect of the compound on IRAK4 kinase activity. The specific method was: the compound was dissolved in dimethyl sulfoxide, and then it was diluted with the buffer solution of the kit by equal gradient to make the final concentration range of the tested compound in the reaction system 10000 nM-0.038 nM, then 2.5 nM kinase, 1 μM biotinylated polypeptide substrate and 7 μM adenosine triphosphate (ATP) were added in sequence and incubated at 37° C. for 120 min. Subsequently, anti-phosphorylated serine/threonine antibody coupled with europium element compound and modified XL665 streptavidin were added to the reaction system to terminate the reaction. After incubating at room temperature for 1 h, the fluorescence intensity of each well at the emission wavelength of 620 nm and 665 nm and the excitation wavelength of 337 nm was determined in HTRF mode on the microplate reader EnVision (PerkinElmer), the ratio value was calculated using the formula Ratio=(665 nm/620 nm)×10^4. By comparing with the fluorescence intensity ratio of the control group, the inhibition rate of the compound at each concentration was calculated, and then the IC50 value of the compound was obtained by fitting the nonlinear curve with the logarithmic concentration-inhibition rate by GraphPad Prism 7.

[2] = biological target: T2, IRAK4 kinase protein in THP-1 cells (Homo sapiens, UniProt Q9NWZ3); test: Degradation of IRAK4 in THP-1 cells by Western Blot; format: cell-based; settings: 24 hours; for DC50 / Dmax: IRAK4 degradation in THP-1 cells; for DC50: read-out: WB DC50; for Dmax: read-out: WB Dmax; for WB D(%) (300 nM) / WB D(%) (1000 nM): degradation percentage of IRAK4 in THP-1 cells; for WB D(%) (300 nM): compound 300 nM; for WB D(%) (1000 nM): compound 1000 nM
T2 construct: endogenous in cells; host or cells: THP-1 cells
T2 sequence (Q9NWZ3 1-460): T1 sequence (Q9NWZ3 1-460)
Protocol: Each well of the 24-well cell culture plate was inoculated with 0.95 mL THP-1 cells (stem cell bank of Chinese academy of sciences) with a cell density of 5×10^5 cells/well. The cell plate was placed in a 5% carbon dioxide incubator and cultured overnight at 37° C., then 50 μL compound in dimethyl sulfoxide was added. The final concentration of the compound was in the range of 1-3000 nM. After continuous cultivation for 24 hours, the cells were collected into a 1.5 mL centrifuge tube, centrifuged at 1000 rpm and 4° C. for 5 minutes. Cell precipitation was washed twice with 1×DPBS, resuspended cells were lysed with 200 μL lysate (cell lysate was Western and IP cell lysate (Beyotime), supplemented with 1 mM mixture of phenylmethylsulfonyl fluoride and protease inhibitor (Beyotime)), left on ice for 30 minutes, then centrifuged at 14000 g at 4° C. for 10 minutes, and the supernatant was taken to detect IRAK4 protein level by Western blot.
The total protein concentration in the supernatant of cell lysis was determined by BCA protein quantitative kit (Tiangen). According to the concentration of total protein detected by BCA, the supernatant was adjusted to […] with PBS and 5×SDS-PAGE protein loading buffer (Beyotime), bathed in water at 100° C. for 10 minutes, then placed in ice bath for 5 minutes, centrifuged at 14000 g and 4° C. for 5 minutes, and then collected as WB loading sample. Prefabricated glue (KeyGEN) was used for protein electrophoresis with a loading amount of 10 μL (total protein 2 μg). After Tris-MOPS-SDS electrophoresis solution (Adamas), 120V constant pressure electrophoresis was performed. After electrophoresis, the protein on the adhesive strip was transferred to PVDF membrane with a constant current of […] for 50 minutes. After the membrane was transferred, the membrane was added in 1×QuickBlock blocking buffer (Beyotime) and incubated for 30 minutes at room temperature. After blocking, PVDF membranes were incubated with IRAK4 primary antibody (Abcam) overnight at 4°, the membranes were washed with TBST buffer (2.4 g Tris, 8.8 g NaCl, 1.5 mL Tween 20, pH adjusted to 7.4, constant volume to 1 L) for 30 minutes, incubated with secondary antibody (Abcam) for 2 hours at room temperature, finally incubated with Clarity Western ECL Substrate (BIO-RAD) for 5 minutes for luminescence development, chemiluminescence imaging system (Clinx, chemiScope 6200 Touch) was used for development and protein mapping photography. The protein map was analyzed by Clinx chemiluminescence analysis software for grayscale values. Using the formula: grayscale correction value=(target protein grayscale value/corresponding internal reference grayscale value)×[…], the grayscale correction value of each sample was calculated. The degradation rate was calculated by comparing with the grayscale correction value of the control group. Furthermore, DC50 and Dmax values of the compound were obtained by the nonlinear curve fitting with the logarithmic concentration-inhibition rate by GraphPad Prism 7.

[3] = Pharmacokinetic study in mice; format: in vivo, SD mice; settings: for AUC(0-t) / bioavailability / Cmax: male, SD, mouse, plasma; for bioavailability: gavage 100 mg/kg vs intravenous 1 mg/kg
Protocol: The following experimental scheme was used to study the pharmacokinetic behavior of the compound of the present invention in mice and evaluate its pharmacokinetic characteristics.
Experimental scheme: 3 healthy SD mice, male, weighing […], were given 100 mg/kg compound by gavage with a volume of 10 mL/kg, prepared with […] (w/v). Before the test, they were fasted for 12 hours and freely drank water. Food was uniformly consumed 4 h after administration.
Three healthy SD mice, male, weighing […], were given 1 mg/kg compound intravenously with a volume of 5 mL/kg, prepared with 5% DMSO/15% solutol %80% PBS (w/v). Before the test, they were fasted for 12 hours and freely drank water. Food was uniformly consumed 4 h after administration.
0.1 mL of venous blood was taken through the submaxillary venous plexus of mice at 0.08 h, 0.25 h, 0.5 h, 1 h, 2 h, 4 h, 8 h, 24 h after gavage administration and 0.08 h, 0.25 h, 0.5 h, 1 h, 2 h, 4 h, 8 h, 24 h after intravenous administration, placed in a heparin test tube, centrifuged at 11000 rpm for 5 min, and plasma was separated, the concentration of compounds in plasma was determined by liquid chromatography-tandem mass spectrometry.

[4] = po, gavage administration 100 mg/kg

Row | SMILES | IC50 [1] | DC50 [2] | Dmax [2] | WB D(%) (300 nM) [2] | WB D(%) (1000 nM) [2] | CL_pred ([3]; intravenous injection 1 mg/kg) | Vss_pred ([3]; intravenous injection 1 mg/kg) | AUC(0-t) ([3]; intravenous injection 1 mg/kg) | bioavailability ([3]; po) | AUC(0-t) [3, 4] | Cmax [3, 4]
1 | COc1cc2nn(C3CCN(CCC4CCN(c5ccc6c(c5)C(=O)N(C5CCC(=O)NC5=O)C6=O)CC4)CC3)cc2cc1NC(=O)c1cccc(C(F)(F)F)n1 (stereo not drawn) [Example 1, N-(2-(1-(2-(1-(2-(2,6-dioxopiperidin-3-yl)-1,3-dioxoisoindolin-5-yl)piperidin-4-yl)ethyl)piperidin-4-yl)-6-methoxy-2H-indazol-5-yl)-6-(trifluoromethyl) pyridinecarboxamide] | 48.6 nM | 25.1 nM | 98.8% | 99.4% | 99.8% | – | – | – | – | – | –
2 | CC(C)(O)c1cc2nn(C3CCN(CCC4CCC5(CC4)CCN(c4ccc6c(c4)C(=O)N(C4CCC(=O)NC4=O)C6=O)CC5)CC3)cc2cc1NC(=O)c1cccc(C(F)(F)F)n1 (stereo not drawn) [Example 12, N-(2-(1-(2-(3-(2-(2,6-dioxopiperidin-3-yl)-1,3-dioxoisoindolin-5-yl)-3-azaspiro[5.5]undec-9-yl)ethyl)piperidin-4-yl)-6-(2-hydroxyprop-2-yl)-2H-indazol-5-yl)-6-(trifluoromethyl) pyridinecarboxamide] | 60.9 nM | 18.3 nM | 99.8% | 97.4% | 97.9% | – | – | – | – | – | –
3 | CC(C)(O)c1cc2nn(C3CCN(CC4CCN(c5ccc6c(c5)C(=O)N(C5CCC(=O)NC5=O)C6=O)CC4)CC3)cc2cc1NC(=O)c1cccc(C(F)(F)F)n1 (stereo not drawn) [Example 7, N-(2-(1-((1-(2-(2,6-dioxopiperidin-3-yl)-1,3-dioxoisoindolin-5-yl)piperidin-4-yl)methyl)piperidin-4-yl)-6-(2-hydroxyprop-2-yl)-2H-indazol-5-yl)-6-(trifluoromethyl) pyridinecarboxamide] | 48 nM | 10.6 nM | 80.2% | 82.9% | 79.6% | 5 mL/min/kg | 2.2 L/kg | 3110 ng·h/mL | 13.4% | 41600 ng·h/mL | 3260 ng/mL
4 | COc1cc2nn(C3CCN(CCN4CCN(c5ccc6c(c5)C(=O)N(C5CCC(=O)NC5=O)C6=O)CC4)CC3)cc2cc1NC(=O)c1cccc(C(F)(F)F)n1 (stereo not drawn) [Example 3, N-(2-(1-(2-(4-(2-(2,6-dioxopiperidin-3-yl)-1,3-dioxoisoindolin-5-yl)piperazin-1-yl)ethyl)piperidin-4-yl)-6-methoxy-2H-indazol-5-yl)-6-(trifluoromethyl) pyridinecarboxamide] | 56.7 nM | 9.3 nM | 97.7% | 96.7% | 96.4% | – | – | – | – | – | –
5 | COc1cc2nn(C3CCN(CCOCCOc4ccc5c(c4)C(=O)N(C4CCC(=O)NC4=O)C5=O)CC3)cc2cc1NC(=O)c1cccc(C(F)(F)F)n1 (stereo not drawn) [Control group 1, N-(2-(1-(2-(2-((2-(2,6-dioxopiperidin-3-yl)-1,3-dioxoisoindolin-5-yl)oxy)ethoxy)ethyl)piperidin-4-yl)-6-methoxy-2H-indazol-5-yl)-6-(trifluoromethyl) pyridinecarboxamide, reference compound] | – | – | 73.9% | 73.9% | 65.1% | – | – | – | – | – | –
6 | CC(C)(O)c1cc2nn(C3CCN(CC(C)(C)N4CCN(c5ccc6c(c5)C(=O)N(C5CCC(=O)NC5=O)C6=O)CC4)CC3)cc2cc1NC(=O)c1cccc(C(F)(F)F)n1 (stereo not drawn) [Example 9] | 32.7 nM | 12.5 nM | 79.1% | 81.1% | 74.4% | – | – | – | – | – | –
7 | COc1cc2nn(C3CCN(CC4CCN(c5ccc6c(c5)C(=O)N(C5CCC(=O)NC5=O)C6=O)CC4)CC3)cc2cc1NC(=O)c1cccc(C(F)(F)F)n1 (stereo not drawn) [Example 2, N-(2-(1-((1-(2-(2,6-dioxopiperidin-3-yl)-1,3-dioxoisoindolin-5-yl)piperidin-4-yl)methyl)piperidin-4-yl)-6-methoxy-2H-indazol-5-yl)-6-(trifluoromethyl) pyridinecarboxamide] | 92.7 nM | 15.7 nM | 90.5% | 90.5% | 86.5% | 8.3 mL/min/kg | 3.3 L/kg | 1920 ng·h/mL | 22.3% | 22400 ng·h/mL | 1230 ng/mL

From US12624019B2, “Indazole derivative, and preparation method therefor and use thereof” (Leadingtac Pharmaceutical (Shaoxing) Co., Ltd., priority 2020, dated 2026)
